In patent publication US7858312B2, “Method of treating bladder and lower urinary tract syndromes” (Duke University, priority 1998, dated 2010):

Assays:
[1] = target: T1, α1dAR (Homo sapiens, UniProt P25100); test: BMY7378 competition binding vs [125I]HEAT in human detrusor membranes, high affinity site; settings: share of total binding sites with high affinity, two-site fit, n=13
T1 construct: from tissue; host or cells: human bladder detrusor smooth muscle membranes
T1 sequence (P25100 1-572): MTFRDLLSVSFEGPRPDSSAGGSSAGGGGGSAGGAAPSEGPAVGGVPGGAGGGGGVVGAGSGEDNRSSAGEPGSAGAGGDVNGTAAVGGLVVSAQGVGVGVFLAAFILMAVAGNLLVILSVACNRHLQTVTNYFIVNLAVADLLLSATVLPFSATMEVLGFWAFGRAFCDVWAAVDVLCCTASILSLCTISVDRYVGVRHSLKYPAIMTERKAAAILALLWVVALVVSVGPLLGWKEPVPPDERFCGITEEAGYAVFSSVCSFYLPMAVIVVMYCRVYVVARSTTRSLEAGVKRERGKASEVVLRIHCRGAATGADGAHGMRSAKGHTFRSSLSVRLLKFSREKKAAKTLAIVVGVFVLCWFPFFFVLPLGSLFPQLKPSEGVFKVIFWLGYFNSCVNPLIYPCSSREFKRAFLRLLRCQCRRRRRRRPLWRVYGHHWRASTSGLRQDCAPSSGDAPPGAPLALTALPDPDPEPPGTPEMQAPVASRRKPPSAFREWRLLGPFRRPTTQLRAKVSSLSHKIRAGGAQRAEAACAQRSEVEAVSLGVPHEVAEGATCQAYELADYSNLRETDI
Description: (§1) Human detrusor and rat bladder membrane preparation. Human detrusor and rat whole bladder was minced over dry ice, and suspended in cold lysis buffer (5 mM Tris HCl and 5 mM EDTA, pH 7.4) with protease inhibitors benzamidine (10 mg/ml), leupeptin (5 mg/ml), and soybean trypsin inhibitor (10 mg/ml) (Sigma Chemical Company; St. Louis, Mo.). A lysate was prepared with a Polytron PT 3000 (Brinkmann; Westbury, N.Y.) at 10,000 rpm for 10 seconds. After pelleting at 40,000×g for 15 minutes (Sorvall SM24 rotor), membranes were suspended in cold resuspension buffer (150 mM NaCl, 50 mM Tris-HCl, 5 mM EDTA, pH 7.4) with protease inhibitors, and kept on ice for immediate use (or stored at −70° C. for later use). Protein content was determined using the bicinchoninic assay (BCA) with bovine serum albumin (BSA) standards (Pierce; Rockford, Ill.).
(§2) Reaction conditions were as described above. Curves were fit with […] regression analysis using InPlot software (GraphPad).

[2] = target: T2, α1aAR (Homo sapiens, UniProt P35348); test: BMY7378 competition binding vs [125I]HEAT in human detrusor membranes, low affinity site; settings: share of total binding sites with low affinity, two-site fit, n=13
T2 construct: from tissue; host or cells: human bladder detrusor smooth muscle membranes
T2 sequence (P35348 1-466): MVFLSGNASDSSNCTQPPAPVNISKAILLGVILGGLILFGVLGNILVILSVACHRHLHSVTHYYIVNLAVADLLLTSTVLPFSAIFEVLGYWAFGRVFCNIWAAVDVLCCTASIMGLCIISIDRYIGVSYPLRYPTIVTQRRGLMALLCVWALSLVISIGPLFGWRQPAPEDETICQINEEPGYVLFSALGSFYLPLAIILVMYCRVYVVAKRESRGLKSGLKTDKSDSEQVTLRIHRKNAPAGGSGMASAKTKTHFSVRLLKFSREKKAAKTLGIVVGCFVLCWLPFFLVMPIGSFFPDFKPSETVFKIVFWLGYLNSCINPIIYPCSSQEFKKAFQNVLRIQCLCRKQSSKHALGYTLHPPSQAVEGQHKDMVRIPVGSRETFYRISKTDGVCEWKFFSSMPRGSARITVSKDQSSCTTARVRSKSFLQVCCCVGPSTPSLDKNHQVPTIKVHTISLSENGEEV
Description: as §1, §2

[3] = target: T3, α1bAR (Homo sapiens, UniProt P35368); test: BMY7378 competition binding, membranes from rat-1 fibroblasts stably transfected with α1bAR (control); settings: Control α1b: rat-1 fibroblast membranes stably transfected with α1bAR; read-out: pKi α1bAR (converted)
T3 construct: expressed in transfected cells; host or cells: rat-1 fibroblasts, stably transfected; membranes
T3 sequence (P35368 1-520): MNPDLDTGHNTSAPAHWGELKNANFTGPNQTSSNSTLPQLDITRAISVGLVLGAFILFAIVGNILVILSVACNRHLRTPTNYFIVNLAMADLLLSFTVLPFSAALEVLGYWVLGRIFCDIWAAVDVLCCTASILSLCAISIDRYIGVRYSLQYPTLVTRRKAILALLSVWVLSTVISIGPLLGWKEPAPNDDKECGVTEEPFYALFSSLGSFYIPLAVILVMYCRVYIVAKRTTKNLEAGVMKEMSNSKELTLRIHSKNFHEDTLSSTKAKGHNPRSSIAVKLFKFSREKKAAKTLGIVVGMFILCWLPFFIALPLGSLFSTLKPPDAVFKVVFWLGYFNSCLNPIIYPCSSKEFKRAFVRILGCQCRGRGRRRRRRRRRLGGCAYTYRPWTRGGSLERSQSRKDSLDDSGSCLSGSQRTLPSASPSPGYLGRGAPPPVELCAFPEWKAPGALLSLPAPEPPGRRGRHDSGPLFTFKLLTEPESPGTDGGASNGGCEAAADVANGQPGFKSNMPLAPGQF
Description: as §2

[4] = target: α1ARs in human detrusor; test: [125I]HEAT saturation binding in human detrusor membranes; settings: saturation binding isotherm, n=5
Description: as §1
Radioligand binding. All mRNA and protein studies described were performed using detrusor from each patient described above (n=13). […] Dried filters were then counted in a gamma counter. Specific binding was calculated by subtracting nonspecific binding from total binding. […] Total α1AR density was then determined in each detrusor sample as described above, using a saturating concentration of [^125I]HEAT (300 pM). […]

% High [1] | % Low [2] | Ki [3] | Kd [4] | Structure (SMILES)
66±3.1% | 35±3.1% | 7.94 µM | – | COc1ccccc1N1CCN(CCN2C(=O)CC3(CCCC3)CC2=O)CC1 [BMY7378]
– | – | – | 0.00013 ± 1.09e-06 µM | O=C1c2ccccc2CCC1CNCCc1ccc(O)c(I)c1 (stereo not shown) [[125I]HEAT]
